# Measured values taken from PubChem BioAssay AID1963858 (Molecular Pharmacology Branch, DTP, NCI, 2024).
# Tested on: HOP-62 multicell spheroids with HUVEC/MSC, viability
# Assay: Anticancer human tumor HOP-62 cell line growth inhibition [KRAS2];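 also: viability read after a week of compound exposure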;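 as to viability, T/C: 100% = DMSO vehicle-treated spheroids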
# Conditions: for IC50: curve of first compound; for viability, T/C: stronger effect = lower value
# Excerpt: Multicellular complex tumor spheroid response to RAS pathway inhibitors in combination with a targeted agents in patient-derived cell lines with oncogenic KRAS variants from multiple cancer types
# A high-throughput screen of multi-cell type tumor spheroids was designed to identify active combinations of targeted small molecules and KRAS pathway inhibitors. Complex spheroids include a stromal component modeled by human endothelial cells (HUVEC) and fibroblasts modeled by human mesenchymal stem cells (MSCs). The concentration ranges selected for each drug and investigational agent were based upon clinically achievable concentrations if the clinical Cmax of the agent was known.
# Compounds. The drugs and investigational agents: BI-3406 (NSC825286), BAY-293 (NSC824723), batoprotafib (TNO155; NSC825523), sotorasib (AMG 510; NSC818433), MRTX1257 (NSC819558), elimusertib (BAY 1895344; NSC800525), molibresib (GSK525762; NSC774829), temuterkib (LY3214996; NSC803410), venetoclax (NSC766270), alisertib (NSC759677), olaparib (NSC753686), talazoparib (NSC767125), erdafitinib (NSC781556), ipatasertib (NSC767898), cabozantinib (NSC761068), nintedanib (NSC756659), abemaciclib (NSC768073), docetaxel (NSC628503), trametinib (NSC758246), and sapanisertib (NSC764658) were obtained from the National Cancer Institute (NCI) Developmental Therapeutics Program Chemical Repository. The FDA-approved anticancer drug set is available from the Developmental Therapeutics Program. […] The stock solutions were prepared in dimethyl sulfoxide (DMSO, Sigma-Aldrich, St. Louis, MO, cat. D2650) at 800-fold the tested concentration and stored at -70 degrees C prior to their use. All drugs and investigational agents were tested over a range starting from a high concentration at or near the clinical Cmax and decreasing in half-log increments. If the clinical Cmax for an agent had not been determined, the highest concentration tested was 10 microM.
# Cell Culture. All cells were maintained in an incubator at 37 degrees C and 5% CO2 with 95% humidity. The PDC lines were cultured according to standard operating procedures established by the NCI PDMR (https://pdmr.cancer.gov/sops/default.htm). Briefly, all PDCs were thawed and cultured in Matrigel-coated flasks prepared with a working solution of 1X Ham's F-12 nutrient mix, without supplementation (Invitrogen, Waltham, MA, cat. 11765054), 100 U/mL penicillin-streptomycin (Invitrogen, cat. 15140122), and 2.5% Matrigel (Corning Inc., Corning, NY, cat. 354248) for the first three passages. All PDCs were cultured in complete DMEM/F-12 media containing advanced DMEM/F-12 (Invitrogen, cat. 12634028), 4.9% defined fetal bovine serum, heat inactivated (HyClone Laboratories Inc., Logan, UT, cat. SH30070.03HI), 389 ng/mL hydrocortisone (Sigma-Aldrich, cat. H4001), 9.7 ng/mL human EGF recombinant protein (Invitrogen, cat. PHG0313), 23.4 microg/mL adenine (Sigma-Aldrich, cat. A2786), 97.3 U/mL penicillin-streptomycin (Invitrogen, cat. 15140122), 1.9 mM L-glutamine (Invitrogen, cat. 25030081), and 9.7 microM Y-27632 dihydrochloride (Tocris Bioscience, Bristol, United Kingdom, cat. 1254). The PDCs were cultured in complete DMEM/F12 media without 9.7 microM Y-27632 dihydrochloride for at least two passages prior to the screen. The established cell line HOP-62 was cultured in RPMI 1640 medium, HEPES (Invitrogen, cat. 22400105) with 10% defined fetal bovine serum (HyClone Laboratories Inc., cat. SH30070.03) and 2 mM L-glutamine (Invitrogen, cat. 25030081). The pooled donor HUVEC were cultured in endothelial cell growth medium 2 (PromoCell, Heidelberg, Germany, cat. C-22011) and the hMSC were cultured in mesenchymal stem cell growth medium 2 (PromoCell, cat. C-28009). For all experiments, HUVEC and hMSC were used at passages </=5, while the malignant cell lines were used at passages </=15. […]
# [1] = second compound 0.1 µM, first compound 0.0316 µM
# [2] = second compound 0.316 µM, first compound 0.0316 µM
# [3] = second compound 1 µM, first compound 0.0316 µM
# [4] = second compound 3.16 µM, first compound 0.0316 µM
# [5] = second compound 10 µM, first compound 0.0316 µM
smiles,measurement,setting,value
COc1cc2nccc(Oc3ccc(NC(=O)C4(C(=O)Nc5ccc(F)cc5)CC4)cc3)c2cc1OC + CC1OCC2(CCN(c3cnc(Sc4ccnc(N)c4Cl)c(N)n3)CC2)C1N,IC50,second compound 0.1 µM,7770 nM
same,IC50,second compound 0.316 µM,2260 nM
same,IC50,second compound 1 µM,31.6 nM
same,IC50,second compound 3.16 µM,< 31.6 nM
same,IC50,second compound 10 µM,< 31.6 nM
same,"viability, T/C",[1],88.3%
same,"viability, T/C","second compound 0.1 µM, first compound 0.1 µM",83%
same,"viability, T/C","second compound 0.1 µM, first compound 0.316 µM",88%
same,"viability, T/C","second compound 0.1 µM, first compound 1 µM",91.1%
same,"viability, T/C","second compound 0.1 µM, first compound 3.16 µM",77.8%
same,"viability, T/C","second compound 0.1 µM, first compound 10 µM",42.2%
same,"viability, T/C",[2],81.8%
same,"viability, T/C","second compound 0.316 µM, first compound 0.1 µM",67.3%
same,"viability, T/C","second compound 0.316 µM, first compound 0.316 µM",73.4%
same,"viability, T/C","second compound 0.316 µM, first compound 1 µM",84.1%
same,"viability, T/C","second compound 0.316 µM, first compound 3.16 µM",38.9%
same,"viability, T/C","second compound 0.316 µM, first compound 10 µM",33.5%
same,"viability, T/C",[3],43.5%
same,"viability, T/C","second compound 1 µM, first compound 0.1 µM",50.5%
same,"viability, T/C","second compound 1 µM, first compound 0.316 µM",49.4%
same,"viability, T/C","second compound 1 µM, first compound 1 µM",52.7%
same,"viability, T/C","second compound 1 µM, first compound 3.16 µM",19%
same,"viability, T/C","second compound 1 µM, first compound 10 µM",27.5%
same,"viability, T/C",[4],33.2%
same,"viability, T/C","second compound 3.16 µM, first compound 0.1 µM",24.1%
same,"viability, T/C","second compound 3.16 µM, first compound 0.316 µM",16.4%
same,"viability, T/C","second compound 3.16 µM, first compound 1 µM",17%
same,"viability, T/C","second compound 3.16 µM, first compound 3.16 µM",15.9%
same,"viability, T/C","second compound 3.16 µM, first compound 10 µM",9.51%
same,"viability, T/C",[5],30.8%
same,"viability, T/C","second compound 10 µM, first compound 0.1 µM",19.3%
same,"viability, T/C","second compound 10 µM, first compound 0.316 µM",20.4%
same,"viability, T/C","second compound 10 µM, first compound 1 µM",16.8%
same,"viability, T/C","second compound 10 µM, first compound 3.16 µM",11.6%
same,"viability, T/C","second compound 10 µM, first compound 10 µM",16.7%
CC(=O)Nc1cccc(-n2c(=O)n(C3CC3)c(=O)c3c(Nc4ccc(I)cc4F)n(C)c(=O)c(C)c32)c1 + CNCc1ccccc1-c1csc(C(C)Nc2nc(C)nc3cc(OC)c(OC)cc23)c1,IC50,second compound 0.1 µM,4.3 nM
same,IC50,second compound 0.316 µM,2.84 nM
same,IC50,second compound 1 µM,2.32 nM
same,IC50,second compound 3.16 µM,< 0.1 nM
same,IC50,second compound 10 µM,< 0.1 nM
same,"viability, T/C","second compound 0.1 µM, first compound 0.0001 µM",104%
same,"viability, T/C","second compound 0.1 µM, first compound 0.000316 µM",97.2%
same,"viability, T/C","second compound 0.1 µM, first compound 0.001 µM",81.6%
same,"viability, T/C","second compound 0.1 µM, first compound 0.00316 µM",60.1%
same,"viability, T/C","second compound 0.1 µM, first compound 0.01 µM",28%
same,"viability, T/C",[1],27.4%
same,"viability, T/C","second compound 0.316 µM, first compound 0.0001 µM",106%
same,"viability, T/C","second compound 0.316 µM, first compound 0.000316 µM",97.4%
same,"viability, T/C","second compound 0.316 µM, first compound 0.001 µM",77%
same,"viability, T/C","second compound 0.316 µM, first compound 0.00316 µM",48%
same,"viability, T/C","second compound 0.316 µM, first compound 0.01 µM",30.1%
same,"viability, T/C",[2],29.9%
same,"viability, T/C","second compound 1 µM, first compound 0.0001 µM",91.2%
same,"viability, T/C","second compound 1 µM, first compound 0.000316 µM",92.8%
same,"viability, T/C","second compound 1 µM, first compound 0.001 µM",74.1%
same,"viability, T/C","second compound 1 µM, first compound 0.00316 µM",41.4%
same,"viability, T/C","second compound 1 µM, first compound 0.01 µM",26.8%
same,"viability, T/C",[3],25.7%
same,"viability, T/C","second compound 3.16 µM, first compound 0.0001 µM",7.87%
same,"viability, T/C","second compound 3.16 µM, first compound 0.000316 µM",0.24%
same,"viability, T/C","second compound 3.16 µM, first compound 0.001 µM",3.22%
same,"viability, T/C","second compound 3.16 µM, first compound 0.00316 µM",0.35%
same,"viability, T/C","second compound 3.16 µM, first compound 0.01 µM",0.07%
same,"viability, T/C",[4],0.24%
same,"viability, T/C","second compound 10 µM, first compound 0.0001 µM",0.13%
same,"viability, T/C","second compound 10 µM, first compound 0.000316 µM",0.15%
same,"viability, T/C","second compound 10 µM, first compound 0.001 µM",2.8%
same,"viability, T/C","second compound 10 µM, first compound 0.00316 µM",0.12%
same,"viability, T/C","second compound 10 µM, first compound 0.01 µM",2.27%
same,"viability, T/C",[5],0.31%
